Legend:
[1] = system: T1 cells (liver tumour cells); test: Cell proliferation assay (MTS) in T1 hepatic tumour cells; format: cell-based, mice; conditions: for concentration at which proliferation is already inhibited / concentration reaching the peak activity (inhibition of proliferation): hepatic tumour cell cultures (T1), 24 and 48 hours exposure; for inhibition of cell proliferation in liver tumour cells: FIG. 1, after 24 and 48 hours exposure
Method: (§1) Tumour cell cultures (T1) used in the tests derive from transgenic mice hepatocellular carcinoma, in which an over-expression of the c-myc and TGFα had been induced. Cells were kept in L-glutamine-free DMEM medium, HAM F 12 containing 1 mg/ml galactose, 18 mM HEPES, 5 mM Na piruvate, 30 mg/M1 proline, ITS 100×, 2 mM glutamine, 0.1% gentamicin (Sigma-Aldrich, Italy) and added with 10% FBS. Cell lines were cultured in polystyrene plates (Dasit, Italy).
T1 cells were plated in 96 wells-plates at a concentration of 10,000 cells/well and left to sediment for 4-5 hours. Cells were then incubated in EGCG or ECG at a concentration of 20, 40, 60, 80, 160 μg/ml for 24 and 48 hours. The substances were diluted in the culture medium starting from stock solutions (aqueous solution for EGCG and aqueous-ethanol solution (1:1) for ECG). Control cells were treated with solutions containing ethanol in amounts corresponding to that of the samples containing catechins. After 24 or 48 hours, the proliferation was calorimetrically measured using a specific kit (Cell Titer Aqueous Cell Proliferation Assay, Promega) which makes use of a calorimetric transformation reaction of colourless MTS (tetrazolium salt) into coloured formazan by living, proliferating cells. Formazan quantitation was carried out by spectrophotometric analysis at λ=490 nm.

[2] = system: caspase 3; test: Evaluation of caspase 3 activation in T1 cell lysates; format: cell-based, mice; conditions: 80 μg/ml, compared with untreated cells; FIG. 2
Method: as §1
Caspase 3 protease activity in cells lysates was determined using a Promega kit. T1 Cells were treated with EGCG and ECG (80 μg/ml) alone or in combination with a caspase inhibitor (Z-VAD-FMK) for 24 or 48 hours. Afterwards a calorimetric substrate (DEVD-pNA) able to evidence the protease activity was added. After incubation for 4 hours at 37° C., the protease activity was determined by spectrophotometric analysis at λ=405 nm.

## O=C(O[C@@H]1Cc2c(O)cc(O)cc2O[C@@H]1c1ccc(O)c(O)c1)c1cc(O)c(O)c(O)c1 [ECG, (−)-epicatechin-3-gallate]
[1]
  concentration at which proliferation is already inhibited: 40 µg/mL
  concentration reaching the peak activity (inhibition of proliferation): 80 µg/mL
[2]
  caspase 3 protease activity: activation

## Oc1cc(O)c2c(c1)O[C@H](c1cc(O)c(O)c(O)c1)[C@H](O)C2 [EGC, epigallocatechin]
[1]
  inhibition of cell proliferation in liver tumour cells: dose-dependent

## O=C(O[C@@H]1Cc2c(O)cc(O)cc2O[C@@H]1c1cc(O)c(O)c(O)c1)c1cc(O)c(O)c(O)c1 [EGCG, (−)-epigallocatechin-3-gallate]
[1]
  inhibition of cell proliferation in liver tumour cells: dose-dependent
  concentration at which proliferation is already inhibited: 40 µg/mL
  concentration reaching the peak activity (inhibition of proliferation): 80 µg/mL
[2]
  caspase 3 protease activity: activation
